The values below come from patent publication US20230035479A1, “METHODS AND COMPOSITIONS FOR REDUCING HAIR GREYING” (President and Fellows of Harvard College, priority 2019, published 2023).

Read-outs that look alike come from different tables or passages of the source.

The test system of one experiment is C57BL/6J mice. In kind it is in vivo, mouse.
Experiment [1] concerns Phospho-CREB (a downstream effector of ADRB2). Kind of experiment: Phospho-CREB immunofluorescence in hair follicles. In kind it is in vivo, mouse. Conditions: 12 hours after RTX injection; not in mature melanocytes. The procedure:
It was then considered whether ADRB2 might mediate the impact of stress on MeSCs.
(§1) Mouse skin samples were fixed using 4% paraformaldehyde (PFA) for 15 minutes at room temperature, washed 6 times with PBS, and immersed in 30% sucrose overnight at 4° C. Samples were then embedded in OCT (Sakura Finetek). 35˜50 μm sections were fixed in 4% paraformaldehyde (PFA) for 2 minutes and washed with PBS and PBST. Slides were then blocked using blocking buffer (5% donkey serum; 1% BSA, 2% cold water fish gelatin in 0.3% Triton in PBS) for 1 hour at room temperature, followed by staining with primary antibodies overnight at 4° C. and secondary antibody for 4 hours at room temperature. For sympathetic nerve density quantification, 90 μm sections were used. EdU was developed for 1 hour using the Click-It reaction according to manufacturer instructions (Thermo Fisher Scientific). TUNEL assay was performed according to manufacturer instructions (Roche). Fontana—Masson staining was performed according to manufacturer instructions (Market Lab ML7255). […]

The subject of experiment [2] is melanocyte stem cells (MeSCs). In words: MeSC numbers in hair follicles, TRP2 immunofluorescence or membrane GFP tracing.
Procedure: To understand how stress impacts the melanocyte lineage, RTX was injected into mice in anagen, when both MeSCs and differentiated melanocytes were present but located within distinct compartments—MeSCs were near to the bulge while differentiated melanocytes were at the hair bulb (FIG. 1E).
For RTX injection, mice received injections of RTX (30-100 μg/kg) in the flank for 1-3 days as described previously [15, 16, 51-56]. […] Control mice were treated with the vehicle only. RTX injection was done either in full anagen (P31-P36) or in 1st telogen (P21). […] Mice were treated for three days (P28-P30). […] RTX was given at Anagen VI (P31˜P36).
The subject of experiment [3] is melanocyte stem cells (MeSCs). Kind of experiment: Apoptosis (active caspase-3, TUNEL) and DNA damage (gamma-H2AX) in MeSCs. In kind it is in vivo, mouse. As for the experimental part:
Radiation causes DNA damage in MeSCs, leading to their differentiation within the niche.
Mouse skin samples were fixed using 4% paraformaldehyde (PFA) for 15 minutes at room temperature, washed 6 times with PBS, and immersed in 30% sucrose overnight at 4° C. Samples were then embedded in OCT (Sakura Finetek). 35˜50 μm sections were fixed in 4% paraformaldehyde (PFA) for 2 minutes and washed with PBS and PBST. Slides were then blocked using blocking buffer (5% donkey serum; 1% BSA, 2% cold water fish gelatin in 0.3% Triton in PBS) for 1 hour at room temperature, followed by staining with primary antibodies overnight at 4° C. and secondary antibody for 4 hours at room temperature. For sympathetic nerve density quantification, 90 μm sections were used. EdU was developed for 1 hour using the Click-It reaction according to manufacturer instructions (Thermo Fisher Scientific). TUNEL assay was performed according to manufacturer instructions (Roche). Fontana—Masson staining was performed according to manufacturer instructions (Market Lab ML7255). Antibodies used: TRP2 (Santa Cruz 10451, 1:800), tyrosine hydroxylase (rabbit, Millipore AB152, 1:1000 or sheep, Millipore AB1542, 1:150-1:300), c-Fos (Abcam, 190289, 1:1000), γ-H2AX (Cell Signaling, 9718, 1:400), phospho-histone H3 (rabbit, Cell Signaling Technology 3377S, 1:500), cleaved caspase 3 (rabbit, Cell Signaling Technology 9664S, 1:400), GFP (rabbit, Abcam ab290, 1:1000 or chicken, Ayes labs GFP-1010, 1:200), CD3 (eBioscience 14-0032-81, 1:800), CD11b (eBioscience 14-0112-81, 1:800), Phospho-CREB (Cell Signaling 9198, 1:800), MITF (Abcam ab12039, 1:400).

Experiment [4] in a line: Fontana-Masson melanin staining. The experiment is classed as in vivo, mouse. The following applies: 5 days after RTX injection. As for the experimental part:
They also began to depart from the bulge—some migrated downwards along the hair follicle, and some migrated out into dermis or epidermis (FIG. 4C, D2 and D3). By Day 3, many GFP positive cells had migrated out of the bulge, and by Day 4, many hair follicles had lost all GFP positive cells in the bulge.
as §1

Take `C=C(C)[C@]12C[C@@H](C)[C@@]34O[C@](Cc5ccccc5)(O[C@@H]1[C@@H]3C=C(COC(=O)Cc1ccc(O)c(OC)c1)C[C@]1(O)C(=O)C(C)=C[C@@H]41)O2` [RTX, resiniferatoxin]: in the experiment on C57BL/6J mice (C57BL/6J mice, next hair cycle after RTX injection), the “hair greying (unpigmented hairs)” value was “many new hairs formed in the next hair cycle following RTX injection became unpigmented”. Further, in the experiment on C57BL/6J mice (RTX injection, male and female mice), the “extent of hair greying, male vs female” value is “same extent of hair greying in both male and female mice”. Besides, the white hair formation result was “still resulted in white hair formation” in the experiment with C57BL/6J mice (RTX into CD11b-DTR mice, myeloid lineages ablated by diphtheria toxin); “still resulted in white hair formation” with C57BL/6J mice (RTX into Rag1 mutant mice lacking T and B cells); “white hairs failed to form” in the experiment on C57BL/6J mice (RTX, ADRB2 depleted from MeSCs using Tyr-CreER). Further, the hair greying result with C57BL/6J mice (RTX into RIPK3 mutant mice) was “still caused hair greying”; in the experiment on C57BL/6J mice (RTX into Tyr-CreER, GR fl/fl mice (MeSC-GR cKO)) it was “still resulted in hair greying”; with C57BL/6J mice (RTX into adrenalectomized mice), “still caused hair greying”; in the experiment on C57BL/6J mice (RTX, ADRB2 depleted from hair follicle stem cells), “still resulted in hair greying”. For the same molecule, the “Phospho-CREB in MeSCs” value in experiment [1] is recorded as “marked induction of Phospho-CREB”. The MeSC loss result in experiment [2] (RTX injected during telogen) is on record as “caused MeSC loss”. Besides, the “time to complete loss of MeSCs from the bulge in many hair follicles” value in experiment [2] (RTX injected in anagen) is reported as no more than 5 days. Also, in experiment [2] (RTX injected in anagen, entire skin), the “TRP2+ MeSC number” value is on record as “significantly reduced”. For the same molecule, the “GFP positive cells (traced MeSCs)” value in experiment [2] (Tyr-CreER, Rosa-mT/mG mice, shortly after RTX injection (D1)) is reported as “transient increase in GFP positive cells”. Besides, the “active caspase-3 or TUNEL signals in MeSCs” value in experiment [3] (before MeSC depletion from the niche, 1 day after injection) is listed as “failed to detect active caspase-3 or TUNEL signals”. Moreover, the “gamma-H2AX foci (DNA damage) in MeSCs” value in experiment [3] (following injection) is on record as “failure to detect gamma-H2AX foci”. Besides, the ectopic pigmentation result in experiment [4] is “ectopic pigmentation could be detected along the hair follicle, epidermis, and dermis”.
